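Tested at 5 concentrations; 48 h exposure; 96-well plates; endpoints linearly interpolated, else capped at highest concentration. Here, GI50 denotes the concentration required for 50% inhibition of growth.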 The source made the active and inactive calls. No stated cut-off is given here; in the data, active = GI50 up to about 1.1 µM and inactive = higher.
How the values were obtained:
Assay in all cases: growth of human tumour cells (NCI), 48 h
A498 = test system: A498
A549 = test system: A549
CCRF-CEM = test system: CCRF-CEM
COLO 205 = test system: COLO 205
DLD-1 = test system: DLD-1
DMS-114 = test system: DMS-114
DMS-273 = test system: DMS-273
EKVX = test system: EKVX
HCC 2998 = test system: HCC 2998
HCT-116 = test system: HCT-116
HCT-15 = test system: HCT-15
HL-60 = test system: HL-60
HOP-18 = test system: HOP-18
HOP-62 = test system: HOP-62
HOP-92 = test system: HOP-92
HT-29 = test system: HT-29
IGROV-1 = test system: IGROV-1
K562 = test system: K562
KM-20L2 = test system: KM-20L2
KM12 = test system: KM12
LOX IMVI = test system: LOX IMVI
M19-MEL = test system: M19-MEL
MCF7 = test system: MCF7
MOLT-4 = test system: MOLT-4
Malme-3M = test system: Malme-3M
NCI-H226 = test system: NCI-H226
NCI-H23 = test system: NCI-H23
NCI-H460 = test system: NCI-H460
NCI-H522 = test system: NCI-H522
NCI/ADR-RES = test system: NCI/ADR-RES
OVCAR-3 = test system: OVCAR-3
OVCAR-4 = test system: OVCAR-4
OVCAR-5 = test system: OVCAR-5
OVCAR-8 = test system: OVCAR-8
RPMI-8226 = test system: RPMI-8226
RXF 393 = test system: RXF 393
SF-268 = test system: SF-268
SF-295 = test system: SF-295
SF-539 = test system: SF-539
SK-MEL-28 = test system: SK-MEL-28
SK-MEL-2 = test system: SK-MEL-2
SK-MEL-5 = test system: SK-MEL-5
SK-OV-3 = test system: SK-OV-3
SN12C = test system: SN12C
SNB-19 = test system: SNB-19
SNB-75 = test system: SNB-75
SNB-78 = test system: SNB-78
SW-620 = test system: SW-620
U-251 = test system: U-251
UACC-257 = test system: UACC-257
UACC-62 = test system: UACC-62
UO-31 = test system: UO-31
XF498 = test system: XF498
786-0 = test system: 786-0
ACHN = test system: ACHN
CAKI-1 = test system: CAKI-1
LXFL 529 = test system: LXFL 529
M14 = test system: M14
TK-10 = test system: TK-10

COc1cc(/N=N\c2ccc(OC)c(S(=O)(=O)O)c2)c(C)cc1/N=N\c1ccc(/C=C/c2ccc(/N=[N+](/[O-])c3ccc(/C=C/c4ccc(/N=N/c5cc(C)c(/N=N\c6ccc(OC)c(S(=O)(=O)O)c6)cc5OC)cc4S(=O)(=O)O)c(S(=O)(=O)O)c3)cc2S(=O)(=O)O)c(S(=O)(=O)O)c1
GI50 (A498): > 100 µM (inactive) | GI50 (A549): > 100 µM (inactive) | GI50 (CCRF-CEM): > 100 µM (inactive) | GI50 (COLO 205): > 100 µM (inactive) | GI50 (DLD-1): > 100 µM (inactive) | GI50 (DMS-114): > 100 µM (inactive) | GI50 (DMS-273): > 68.1 µM (inactive) | GI50 (EKVX): > 100 µM (inactive) | GI50 (HCC 2998): > 100 µM (inactive) | GI50 (HCT-116): > 100 µM (inactive) | GI50 (HCT-15): > 100 µM | GI50 (HL-60): 69.8 µM (inactive) | GI50 (HOP-18): > 100 µM (inactive) | GI50 (HOP-62): > 100 µM (inactive) | GI50 (HOP-92): > 75.2 µM (inactive) | GI50 (HT-29): > 100 µM (inactive) | GI50 (IGROV-1): > 100 µM (inactive) | GI50 (K562): > 100 µM (inactive) | GI50 (KM-20L2): 95.1 µM (inactive) | GI50 (KM12): > 100 µM (inactive) | GI50 (LOX IMVI): > 100 µM (inactive) | GI50 (M19-MEL): > 100 µM (inactive) | GI50 (MCF7): > 100 µM (inactive) | GI50 (MOLT-4): > 100 µM (inactive) | GI50 (Malme-3M): > 100 µM (inactive) | GI50 (NCI-H226): > 52.1 µM (inactive) | GI50 (NCI-H23): > 100 µM (inactive) | GI50 (NCI-H460): > 100 µM (inactive) | GI50 (NCI-H522): > 100 µM (inactive) | GI50 (NCI/ADR-RES): > 100 µM (inactive) | GI50 (OVCAR-3): > 100 µM (inactive) | GI50 (OVCAR-4): > 100 µM (inactive) | GI50 (OVCAR-5): > 100 µM (inactive) | GI50 (OVCAR-8): > 100 µM (inactive) | GI50 (RPMI-8226): > 100 µM (inactive) | GI50 (RXF 393): > 100 µM (inactive) | GI50 (SF-268): > 100 µM (inactive) | GI50 (SF-295): > 100 µM (inactive) | GI50 (SF-539): > 100 µM (inactive) | GI50 (SK-MEL-28): > 100 µM (inactive) | GI50 (SK-MEL-2): > 100 µM (inactive) | GI50 (SK-MEL-5): > 100 µM (inactive) | GI50 (SK-OV-3): > 100 µM (inactive) | GI50 (SN12C): > 100 µM (inactive) | GI50 (SNB-19): > 100 µM (inactive) | GI50 (SNB-75): 58.2 µM (inactive) | GI50 (SNB-78): > 100 µM (inactive) | GI50 (SW-620): > 100 µM (inactive) | GI50 (U-251): > 100 µM (inactive) | GI50 (UACC-257): > 100 µM (inactive) | GI50 (UACC-62): > 100 µM (inactive) | GI50 (UO-31): > 100 µM (inactive) | GI50 (XF498): > 100 µM (inactive)

CCCCCCCCCc1cc(=O)c2ccc(OCc3ccccc3)cc2o1
GI50 (786-0): > 100 µM (inactive) | GI50 (A549): 70.8 µM (inactive) | GI50 (ACHN): > 100 µM (inactive) | GI50 (CAKI-1): 2.92 µM (inactive) | GI50 (CCRF-CEM): 65.2 µM (inactive) | GI50 (COLO 205): > 100 µM (inactive) | GI50 (DLD-1): > 100 µM (inactive) | GI50 (DMS-114): 92.9 µM (inactive) | GI50 (DMS-273): > 100 µM (inactive) | GI50 (EKVX): > 100 µM (inactive) | GI50 (HCC 2998): > 100 µM (inactive) | GI50 (HCT-116): 71.3 µM (inactive) | GI50 (HCT-15): > 100 µM | GI50 (HL-60): 14.5 µM (inactive) | GI50 (HOP-18): > 100 µM (inactive) | GI50 (HOP-62): > 100 µM (inactive) | GI50 (HOP-92): > 100 µM (inactive) | GI50 (HT-29): > 100 µM (inactive) | GI50 (IGROV-1): > 100 µM (inactive) | GI50 (K562): > 100 µM (inactive) | GI50 (KM-20L2): > 100 µM (inactive) | GI50 (KM12): > 100 µM (inactive) | GI50 (LOX IMVI): > 100 µM (inactive) | GI50 (LXFL 529): 73.8 µM (inactive) | GI50 (M14): > 100 µM (inactive) | GI50 (M19-MEL): 69.7 µM (inactive) | GI50 (Malme-3M): 25.8 µM (inactive) | GI50 (NCI-H226): 34.7 µM (inactive) | GI50 (NCI-H23): > 100 µM (inactive) | GI50 (NCI-H460): 64.4 µM (inactive) | GI50 (NCI-H522): > 100 µM (inactive) | GI50 (OVCAR-3): > 100 µM (inactive) | GI50 (OVCAR-4): 83.2 µM (inactive) | GI50 (OVCAR-5): > 100 µM (inactive) | GI50 (OVCAR-8): > 100 µM (inactive) | GI50 (RXF 393): 96.2 µM (inactive) | GI50 (SF-268): > 100 µM (inactive) | GI50 (SF-295): > 100 µM (inactive) | GI50 (SF-539): 90.8 µM (inactive) | GI50 (SK-MEL-28): > 100 µM (inactive) | GI50 (SK-MEL-2): 43.1 µM (inactive) | GI50 (SK-MEL-5): 97.9 µM (inactive) | GI50 (SK-OV-3): > 100 µM (inactive) | GI50 (SN12C): > 100 µM (inactive) | GI50 (SNB-19): > 100 µM (inactive) | GI50 (SNB-75): 30.8 µM (inactive) | GI50 (SNB-78): > 100 µM (inactive) | GI50 (SW-620): > 100 µM (inactive) | GI50 (TK-10): 65.5 µM (inactive) | GI50 (U-251): > 100 µM (inactive) | GI50 (UACC-257): > 100 µM (inactive) | GI50 (UACC-62): > 100 µM (inactive) | GI50 (UO-31): > 100 µM (inactive) | GI50 (XF498): > 100 µM (inactive)
